{
  "source": "paper PMC10214526",
  "about": "“Semisynthetic LC3 Probes for Autophagy Pathways Reveal a Noncanonical LC3 Interacting Region Motif Crucial for the Enzymatic Activity of Human ATG3” (ACS Central Science, 2023)",
  "assay_type_in_all_cases": "biochemical, human",
  "key": {"ATG3": {"test_system": "ATG3", "test": "Reaction (cross-linking) of Ubl activity-based probes with recombinant ATG3 and variants", "details": "probe 15 μM; ATG3 wt, C264A and ΔLIR 5 μM; SDS-PAGE (Figure S9)"}, "ATG3 C1": {"test_system": "ATG3 C1", "test": "NaCl dependence of cross-linking of probe 2 with ATG3 C1", "details": "probe 2 15 μM, ATG3 C1 15 μM, phosphate buffer, NaCl 0-500 mM, 37 °C, 30 min; n = 3", "experimental": "Farnung et al. Supplementary Information […]\nelectrostatic representation of ATG3 LIR motif and GABARAP\nFigure S13. Interaction of ATG3 and GABARAP is salt-dependent. a, ColabFold prediction of ATG3-GABARAP complex (in Fig. 1c) shown with its Coulombic potential. Only LIR motif of ATG3 shown for clarity.\nLIRATG3 is mostly negatively charged and binds to a strongly positively charged surface on GABARAP. b, Binding of cyclized LIRATG3 peptide to GABARAP (0.2 μM) in the presence of varying amounts of NaCl. Binding was performed in triplicates and normalized to polarization for 0 mM NaCl. c, Modification of ATG3 C1 with 2 in the presence of increasing concentrations of NaCl (0 -500 mM). Coomassie Blue stained SDS-PAGE gel was analyzed by gel densitometry. d, Quantification of data shown in […]. […]\nFigure S14. […] Lipidation was assessed by immunoblotting against LC3A/B. Lipidation was observed upon re-expression of ATG3 wt but not ATG3 C264A or ΔLIR. As a positive control wild-type HEK293T cells were starved and analyzed in parallel to ATG3 –/– cells. […]\n(§1) SDS-PAGE (8-16%, Bio-Rad) and visualized by Coomassie staining. Gel bands were quantified by gel densitometry using ImageLab (Bio-Rad).\nATG3 C1 (15 μM) was mixed with GABARAP methyl fumarate 2 (15 μM) in PBS, and the reaction mixture was incubated at 37 °C for 30 min. […] Gel bands were quantified by gel densitometry using ImageLab […]"}, "ATG3 C1 alanine variants": {"test_system": "ATG3 C1 alanine variants", "test": "Alanine screen: cross-linking of probe 2 with ATG3 C1 alanine variants", "details": "probe 2 15 μM, PBS, 37 °C, 30 min, n = 2", "experimental": "Figure 4 Dissection of interactions between GABARAP and LIR^ATG3 by alanine scanning. GABARAP probe 2 (15 μM) was reacted with ATG3 C1 alanine variants (15 μM) for 30 min. Coomassie Blue stained SDS-PAGE gel showing modification of ATG3 C1 variants with GABARAP methyl fumarate. The indicated ATG3 residues were mutated to alanine. Cross-linking efficiency was estimated by gel densitometry and normalized to the reaction with ATG3 C1. Data are presented as average values ± s.d. n = 2 independent experiments. Full-gel images are available in the Supplementary Information.\nFarnung et al. Supplementary Information\nas §1\nATG3 C1 (15 μM) was mixed with GABARAP methyl fumarate 2 (15 μM) in PBS, and the reaction mixture was incubated at 37 °C for 30 min. The reaction was quenched by addition of 2x Laemmli buffer and boiled at 95 °C for 5 min. Samples were resolved by SDS-PAGE (8-16%, Bio-Rad) and visualized by Coomassie staining. Gel bands were quantified by gel densitometry using ImageLab […]\n3.9. Structure prediction […]\n! ! ( )\"% - ) ( $&, . \"#*( *\"&% % *! \"#*( * &% %*( * +% ( ( + '( ))+( ! )&#+*\"&%- )*(\"*+( * -\"*! * % %*(\" + *&& * \"% (+ ' '*\" ! […]"}},
  "data": [
    {"substance": "GABARAP(ΔG116)–NHNH methyl-fumarate [compound 2]", "values": [
      {"measurement": "LIR dependence of ATG3 wild-type modification", "setting": "ATG3", "result": "dependent on LIRATG3"},
      {"measurement": "Effect of increasing NaCl on cross-linking with ATG3 C1", "setting": "ATG3 C1", "result": "reduced"},
      {"measurement": "Cross-linking with ATG3 D109 or T110 mutants", "setting": "ATG3 C1 alanine variants; D109 or T110 to alanine, ATG3 C1 variant 15 μM", "result": "almost no effect on reaction efficiency"},
      {"measurement": "Cross-linking with ATG3 E95 and I97 mutants", "setting": "ATG3 C1 alanine variants; E95 and I97 to alanine, ATG3 C1 variant 15 μM", "result": "severely diminish cross-linking"},
      {"measurement": "Cross-linking with ATG3 V108A", "setting": "ATG3 C1 alanine variants; V108A, ATG3 C1 variant 15 μM, relative to ATG3 C1", "result": "significantly reduced the cross-linking efficiency"},
      {"measurement": "Cross-linking with ATG3 W107 mutant", "setting": "ATG3 C1 alanine variants; W107A, ATG3 C1 variant 15 μM, relative to ATG3 C1", "result": "almost completely abrogated the reaction"},
      {"measurement": "Cross-linking with other ATG3 alanine mutants", "setting": "ATG3 C1 alanine variants; majority of the other screened residues", "result": "at least some impact on the conjugation with GABARAP"}
    ]}
  ]
}
